In article PMC5806375, “Characterization and expression analysis of a newly identified glutathione S-transferase of the hard tick Haemaphysalis longicornis during blood-feeding” (Parasites & Vectors, 2018):

How the values were obtained:
[1] = target: T1, HlGST (recombinant HlGST, rHlGST) (Haemaphysalis longicornis, UniProt Q6JVN0); test: absorbance at […] nm, Lineweaver-Burk plot; format: biochemical; settings: 5 mM GSH, CDNB 0.125-2 mM, 100 mM Tris-HCl pH 7.5, 25 °C, 5% methanol; read-out: CDNB kinetic constant^a
T1 construct: gene GST
T1 sequence (Q6JVN0 1-223): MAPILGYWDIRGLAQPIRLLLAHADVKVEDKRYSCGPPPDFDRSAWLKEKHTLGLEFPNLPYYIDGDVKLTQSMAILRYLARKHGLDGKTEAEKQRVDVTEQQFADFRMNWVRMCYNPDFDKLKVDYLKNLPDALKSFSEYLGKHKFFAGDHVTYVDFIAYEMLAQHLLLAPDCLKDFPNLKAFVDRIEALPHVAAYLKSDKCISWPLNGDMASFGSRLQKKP

[2] = target: T2, HlGST2 (recombinant HlGST2, rHlGST2) (Haemaphysalis longicornis, UniProt A0A2Z6FA39); test: absorbance at […] nm, Lineweaver-Burk plot; format: biochemical; settings: 5 mM GSH, CDNB 0.125-2 mM, 100 mM Tris-HCl pH 7.5, 25 °C, 5% methanol; read-out: CDNB kinetic constant^a
T2 construct: gene GST
T2 sequence (A0A2Z6FA39 1-230): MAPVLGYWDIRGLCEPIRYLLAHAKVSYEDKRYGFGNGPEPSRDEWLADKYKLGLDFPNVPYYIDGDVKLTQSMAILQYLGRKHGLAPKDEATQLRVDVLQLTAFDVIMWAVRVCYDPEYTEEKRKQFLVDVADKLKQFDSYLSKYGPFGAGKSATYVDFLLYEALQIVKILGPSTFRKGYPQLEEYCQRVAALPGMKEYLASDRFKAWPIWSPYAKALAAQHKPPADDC

## O=[N+]([O-])c1ccc(Cl)c([N+](=O)[O-])c1 [CDNB, 1-chloro-2,4-dinitrobenzene]
[1]
  Km: 820 ± 140 µM
[2]
  Km: 610 ± 200 µM
